Measurements published in publication PMC2911657 (The Journal of Cell Biology, 2010).
Entries after “also recorded” stand apart in the source; their conditions may differ. Like-named read-outs stand apart in the source and are kept apart here.

Assays:
[1] = molecular target: human AURORA B1–344–INCENP835–903 complex (Homo sapiens, UniProt Q96GD4); experiment: In vitro kinase assay on AURORA B–INCENP complex, substrate histone H3; assay type: biochemical
MPS1 [2] = molecular target: T1, MPS1 (Homo sapiens, UniProt P33981); experiment: In vitro kinase assay on MPS1; assay type: biochemical; settings: for MPS1 inhibition in vitro: 1 µM
T1 sequence (P33981 1-857): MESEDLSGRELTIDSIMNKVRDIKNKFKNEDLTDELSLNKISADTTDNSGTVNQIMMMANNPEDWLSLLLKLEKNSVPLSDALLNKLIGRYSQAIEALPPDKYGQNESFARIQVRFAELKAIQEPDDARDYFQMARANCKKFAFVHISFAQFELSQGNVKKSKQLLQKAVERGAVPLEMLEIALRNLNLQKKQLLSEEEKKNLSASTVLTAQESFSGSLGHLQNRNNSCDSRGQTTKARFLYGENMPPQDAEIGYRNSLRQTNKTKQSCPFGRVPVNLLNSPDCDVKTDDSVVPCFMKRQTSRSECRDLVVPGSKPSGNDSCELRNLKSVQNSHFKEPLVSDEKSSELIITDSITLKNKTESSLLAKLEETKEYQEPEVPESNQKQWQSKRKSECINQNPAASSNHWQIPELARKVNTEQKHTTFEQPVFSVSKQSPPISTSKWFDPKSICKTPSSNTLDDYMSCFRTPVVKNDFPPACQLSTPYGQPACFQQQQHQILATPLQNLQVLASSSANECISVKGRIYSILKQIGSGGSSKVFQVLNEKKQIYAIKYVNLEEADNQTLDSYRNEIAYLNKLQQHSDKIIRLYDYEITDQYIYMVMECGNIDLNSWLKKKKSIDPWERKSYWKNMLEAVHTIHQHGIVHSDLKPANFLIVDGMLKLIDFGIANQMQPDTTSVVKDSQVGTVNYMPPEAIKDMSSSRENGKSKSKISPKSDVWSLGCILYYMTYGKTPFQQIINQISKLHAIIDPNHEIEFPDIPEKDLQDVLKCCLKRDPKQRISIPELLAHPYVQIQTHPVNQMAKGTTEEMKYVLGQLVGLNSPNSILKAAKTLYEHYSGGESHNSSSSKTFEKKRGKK

HeLa cells [3] = experiment: Spindle checkpoint: duration of mitotic arrest, time-lapse video microscopy; assay type: cell-based, human
HeLa cells [4] = experiment: Cytokinesis, time-lapse experiment; assay type: cell-based, human
[5] = test system: P-S10-H3 (AURORA B substrate); experiment: P-S10-H3 levels by Western blotting in mitotic HeLa cell lysates; assay type: cell-based, human
HeLa cells [6] = experiment: Chromosome congression / alignment, immunofluorescence; assay type: cell-based, human; settings: 100 µM
MPS1 [7] = molecular target: T1, MPS1; experiment: Kinetochore localization of MPS1, immunofluorescence; assay type: cell-based; settings: 0.5 µM; nocodazole
BUB1 = experiment: In vitro kinase assay on BUB1; assay type: biochemical, human
[8] = test system: ROD, ZWILCH, ZW10, SPINDLY, MAD1; experiment: Kinetochore localization of RZZ, SPINDLY and MAD1, immunofluorescence; assay type: cell-based, human
MAD2 = settings: 100 nM hesperadin, ref Yang et al., 2009, cited from earlier work
[9] = test system: P-S7–CENP-A (AURORA B substrate); experiment: Kinetochore P-S7–CENP-A levels, immunofluorescence; assay type: cell-based, human
HeLa cells [10] = settings: concentrations up to 10 µM; MG132
PRP4 = settings: 1 µM
HASPIN = settings: 1 µM
HeLa cells [11] = test system: HeLa cells
MAPKs = settings: 1 µM; ref D’Alise et al., 2008; cited from earlier work
CDK1–CYCLIN B = settings: 1 µM
PLK1 = settings: 1 µM
NEK2A = settings: 1 µM
TAO1 = settings: 1 µM
AURORA B = settings: HeLa cells
HeLa cells [12] = settings: cold treatment

human AURORA B1–344–INCENP835–903 complex, sequence (Q96GD4 whole entry): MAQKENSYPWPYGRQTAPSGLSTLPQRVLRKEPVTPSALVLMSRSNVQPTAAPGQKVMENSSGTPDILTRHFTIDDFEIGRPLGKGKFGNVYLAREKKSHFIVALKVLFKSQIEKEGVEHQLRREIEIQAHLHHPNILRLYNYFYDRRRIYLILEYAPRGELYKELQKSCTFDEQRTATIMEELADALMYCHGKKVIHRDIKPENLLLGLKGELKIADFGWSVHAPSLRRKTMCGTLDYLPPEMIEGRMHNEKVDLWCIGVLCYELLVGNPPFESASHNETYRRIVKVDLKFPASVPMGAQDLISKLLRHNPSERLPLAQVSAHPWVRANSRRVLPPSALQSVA
human AURORA B1–344–INCENP835–903 complex, sequence (Q9NQS7 835-903 partner limits assumed): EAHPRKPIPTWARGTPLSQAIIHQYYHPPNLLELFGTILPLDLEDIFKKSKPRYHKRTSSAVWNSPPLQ

## Oc1c2ccccc2c2c3c(cccc13)N=N2 [SP600125]
[1]
  IC50 for AURORA B compared with IC50 for MPS1: significantly lower
MPS1 [2]
  IC50: ~2500 nM

## N#CC(=C(/N)Sc1ccccc1N)/C(C#N)=C(/N)Sc1ccccc1N [U0126]
HeLa cells [3]; 10 µM
  effect on duration of the spindle checkpoint: does not affect the duration of the spindle checkpoint

## COc1cc2c(Nc3ccc(NC(=O)c4ccccc4)cc3)ncnc2cc1OCCCN1CCOCC1 [ZM447439]
HeLa cells [4]; time-lapse
  concentration range in which cytokinesis is impaired: 0.1 to 0.5 µM
[5]; Western blotting
  concentration inhibiting P-S10-H3: ≤ 500 nM
MPS1 [2]
  MPS1 inhibition in vitro: did not inhibit

## Cc1ccc2c(c1)C(=O)C1(O)CCN(c3ccccc3)C1=N2 (stereo not drawn) [blebbistatin]
HeLa cells [3]; unpublished data
  ability of mitotic HeLa cells to maintain a nocodazole-mediated arrest: did not significantly affect
HeLa cells [6]
  effect on chromosome alignment: did not cause any evident effects; also recorded: does not cause evident perturbations

## CCS(=O)(=O)Nc1ccc2c(c1)/C(=C(/Nc1ccc(CN3CCCCC3)cc1)c1ccccc1)C(=O)N2 [hesperadin]
MPS1 [7]
  MPS1 kinetochore staining: prevented kinetochore localization
HeLa cells [4]; 5–10 nM range
  cells with impaired cytokinesis: 100%
MPS1 [2]
  MPS1 inhibition in vitro: failed to observe significant MPS1 (and BUB1) inhibition
BUB1; 1 µM hesperadin
  BUB1 inhibition in vitro: failed to observe significant MPS1 (and BUB1) inhibition
[8]; 0.5–1.0 µM, high concentrations of nocodazole, unpublished data
  MAD1 and RZZ complex at kinetochores: lost from kinetochores
MAD2; high nocodazole (3.2 µM)
  MAD2 at kinetochores: retained on kinetochores
MAD2; low nocodazole concentrations
  MAD2 at kinetochores: absent from kinetochores
[9]; 100 nM
  P-S7–CENP-A antigen: invisible

## c1nc2nc(Nc3ccc(N4CCOCC4)cc3)nc(NC3CCCCC3)c2[nH]1 [reversine]
HeLa cells [10]
  inhibition of spindle bipolarization: did not inhibit
PRP4
  effect on PRP4 kinase activity: failed to alter the activity
HASPIN
  effect on HASPIN kinase activity: failed to alter the activity
HeLa cells [4]; 0.5 µM
  effect on cytokinesis: does not significantly inhibit
HeLa cells [4]; 1 µM
  effect on cytokinesis: unaffected
HeLa cells [11]
  effect on centrosome duplication: failed to see an effect
MAPKs
  inhibition of MAPKs: not significantly inhibited
[5]; 0.5 µM
  effect on P-S10-H3: no effects
HeLa cells [3]; 500 nM Taxol, 10 µM STLC or BI2536
  spindle checkpoint in the presence of Taxol, STLC or BI2536: caused an override of the checkpoint
CDK1–CYCLIN B
  effect on CDK1–CYCLIN B kinase activity: failed to alter the activity
PLK1
  effect on PLK1 kinase activity: failed to alter the activity
BUB1; 1 µM
  effect on BUB1 kinase activity: failed to alter the activity
[8]; 0.5 µM reversine, 330 nM nocodazole, MG132
  kinetochore localization of ROD, ZWILCH, ZW10, SPINDLY and MAD1: largely evicted from kinetochores
[8]; nocodazole 0.33 or 3.3 µM
  MAD1 localization to kinetochores: failed to localize to kinetochores
NEK2A
  effect on NEK2A kinase activity: failed to alter the activity
TAO1
  effect on TAO1 kinase activity: failed to alter the activity
AURORA B
  kinetochore localization of AURORA B: unaffected
[9]; up to 5 µM, nocodazole
  kinetochore levels of P–CENP-A: not influenced; also recorded: unaltered
HeLa cells [12]
  inhibition of kinetochore fiber formation: did not inhibit

## COC[C@H]1OC(=O)c2coc3c2[C@@]1(C)C1=C(C3=O)[C@@H]2CCC(=O)[C@@]2(C)C[C@H]1OC(C)=O [wortmannin]
HeLa cells [3]; 100 nM
  effect on duration of the spindle checkpoint: does not affect the duration of the spindle checkpoint
